According to patent US10188656B2, “Methods of treatment of malignancies” (Agios Pharmaceuticals, Inc., priority 2015, dated 2019):

Legend:
Type in all cases: in vivo, human
2-HG plasma levels = assay: Phase 1/2 study: pharmacodynamic response, 2-HG plasma levels; details: most subjects with R140Q mutation, all doses; sustained reduction by Day 1 of Cycle 2
Procedure: Subjects in the dose escalation phase and Part 1 Expansion also will undergo PK/PD assessments over a 10-hour period on C1D15, C2D1, and C4D1. […] These subjects will have urine collected for PK/PD evaluation at screening; prior to dosing on C1D15, C2D1 and Day 1 of all cycles thereafter; and at the End of Treatment visit. Available bone marrow biopsy samples also will be assessed for 2-HG and α-KG levels.
The starting dose of COMPOUND 1 recommended for evaluation is 100 mg QD. This is based on the safety, PK, pharmacodynamics and clinical activity of COMPOUND 1 observed to date in AG221-C-001. […] Thus a dose of 100 mg should adequately achieve inhibition of 2-HG in subjects with either R140Q or R172K mutation.
Serial blood sampling for determination of concentration-time profiles of COMPOUND 1 and its metabolite (6-(6-(trifluoromethyl)pyridin-2-yl)-N2-(2-(trifluoromethyl)pyridin-4-yl)-1,3,5-triazine-2,4-diamine). Urine sampling for determination of concentrations of COMPOUND 1 and its metabolite (6-(6-(trifluoromethyl)pyridin-2-yl)-N2-(2-(trifluoromethyl)pyridin-4-yl)-1,3,5-triazine-2,4-diamine) (dose escalation and Part 1 expansion subjects only). Blood and bone marrow sampling for determination of 2-HG and α-KG levels.

[1] = system: rrAML with an IDH2 mutation; assay: Example 5: FoundationOne Heme panel co-mutations versus response to COMPOUND 1 in rrAML patients
Procedure: FoundationOne Heme panel analysis was performed on 100 screening samples from rrAML patients in the trial described in Example 1. Sample types included peripheral blood and bone marrow.
While rare, co-occurring mutations in TET2 (5 patients) and IDH1 (4 patients) were also observed in this cohort. Mechanistically, mutations in these genes may counteract the efficacy of COMPOUND 1; however, presence of either of these mutated genes was not associated with significant decrease in ORR or complete response (CR) (Table 10).
To further investigate the association between NRAS mutations and ORR to COMPOUND 1, a more detailed analysis of individual mutation sites was performed. NRAS mutations at G12, G13, and Q61 are the most highly characterized sites known to result in constitutive RAS signaling, see Prior I A, Lewis P D, Mattos C. A comprehensive survey of Ras mutations in cancer, Cancer Res. 2012; 72(10):2457-67. When mutations at these sites were analyzed versus ORR to COMPOUND 1, the observed decrease in ORR became statistically significant (p=0.002, see, FIG. 9A and Table 11). Table 11 provides a contingency table indicating statistical significance of lower overall response rate seen in patients presenting with an NRAS co-mutation.

[2] = Phase 1/2 study: safety (AEs, NCI CTCAE v4.03); details: 100 mg, including ≥Grade 3
From the text: Monitoring of AEs, including determination of DLTs, serious adverse events (SAEs), and AEs leading to discontinuation; safety laboratory parameters; physical examination findings; vital signs; 12-lead ECGs; LVEF; and ECOG PS.
The severity of AEs will be assessed by the NCI CTCAE, Version 4.03.

[3] = system: advanced hematologic malignancies with an IDH2 mutation; assay: Example 2: NRAS mutation status at screening versus COMPOUND 1 response (next generation sequencing, Fisher's exact test)
Procedure: A subset of the clinical samples from the trial described in Example 1 were analyzed at screening. Sample types included bone marrow, peripheral blood and mononuclear cells isolated from bone marrow or peripheral blood. DNAs were extracted from these samples and sequenced at Foundation Medicine (see http://foundationone.com/learn.php) using next generation sequencing technique.
A total of 60 genes were identified to carry at least one mutation in the analyzed set (including IDH2 gene). Fisher's exact test was conducted to evaluate the association of somatic mutations with clinical response (responders include CR, CRp, CRi and PR, indicated as +, while none-responders include SD and PD, indicated as − in Table 9). The P-values were adjusted by multiple-test correction.
Mutation status positive (+) means any known mutation(s) in NRAS, and negative (−) means no mutation in NRAS was present.
Positive response status (+) includes CR, mCR and PR and negative response status (−) includes stable disease (SD) and pregressive disease (PD).

[4] = rrAML, co-occurring ASXL1 mutation
[5] = rrAML, co-occurring ATM mutation
[6] = rrAML, co-occurring BCOR mutation
[7] = rrAML, co-occurring BCORL1 mutation
[8] = rrAML, co-occurring CBL mutation
[9] = rrAML, co-occurring CEBPA mutation
[10] = rrAML, co-occurring CUX1 mutation
[11] = rrAML, co-occurring DNMT3A mutation
[12] = rrAML, co-occurring ETV6 mutation
[13] = rrAML, co-occurring EZH2 mutation
[14] = rrAML, co-occurring FLT3 mutation
[15] = rrAML, co-occurring GATA2 mutation
[16] = rrAML, co-occurring IDH1 mutation
[17] = rrAML, co-occurring JAK2 mutation
[18] = rrAML, co-occurring KMT2A mutation
[19] = rrAML, co-occurring KRAS mutation
[20] = rrAML, co-occurring NPM1 mutation
[21] = rrAML, co-occurring NRAS mutation
[22] = rrAML, co-occurring PHF6 mutation
[23] = rrAML, co-occurring PTPN11 mutation
[24] = rrAML, co-occurring RUNX1 mutation
[25] = rrAML, co-occurring SETBP1 mutation
[26] = rrAML, co-occurring SF3B1 mutation
[27] = rrAML, co-occurring SRSF2 mutation
[28] = rrAML, co-occurring STAG2 mutation
[29] = rrAML, co-occurring TET2 mutation
[30] = rrAML, co-occurring TP53 mutation
[31] = rrAML, co-occurring U2AF1 mutation
[32] = rrAML, co-occurring WT1 mutation

SMILES: CC(C)(O)CNc1nc(Nc2ccnc(C(F)(F)F)c2)nc(-c2cccc(C(F)(F)F)n2)n1 [COMPOUND 1, 2-methyl-1-[(4-[6-(trifluoromethyl)pyridin-2-yl]-6-{[2-(trifluoromethyl)pyridin-4-yl]amino}-1,3,5-triazin-2-yl)amino]propan-2-ol]
- inhibition of 2-HG plasma levels (2-HG plasma levels): up to 98%
- number of patients, No Response ([1]; NRAS mt (G12, G13, Q61)): 13
- number of patients, Response ([1]; NRAS mt (G12, G13, Q61)): 1
- number of patients, No Response ([1]; NRAS wt): 37
- number of patients, Response ([1]; NRAS wt): 40
- ORR ([1]; patients with the least (≤3) co-occurring mutations): 69.2%
- ORR ([1]; patients with the most (≥6) co-occurring mutations): 23.3%
- CR [1, 4]: 0.269
- CR, OR [1, 4]: 0.583
- ORR [1, 4]: 0.385
- ORR, OR [1, 4]: 0.784
- ORR ([1]; rrAML, co-occurring ASXL1 mutation (text)): 39%
- CR [1, 5]: 0.500
- CR, OR [1, 5]: 1.721
- ORR [1, 5]: 0.500
- ORR, OR [1, 5]: 1.306
- CR [1, 6]: 0.308
- CR, OR [1, 6]: 0.743
- ORR [1, 6]: 0.385
- ORR, OR [1, 6]: 0.800
- CR [1, 7]: 0.000
- CR, OR [1, 7]: 0.334
- ORR [1, 7]: 0.000
- ORR, OR [1, 7]: 0.254
- CR [1, 8]: 0.333
- CR, OR [1, 8]: 0.853
- ORR [1, 8]: 0.333
- ORR, OR [1, 8]: 0.646
- CR [1, 9]: 0.167
- CR, OR [1, 9]: 0.331
- ORR [1, 9]: 0.167
- ORR, OR [1, 9]: 0.250
- CR [1, 10]: 0.500
- CR, OR [1, 10]: 1.721
- ORR [1, 10]: 0.500
- ORR, OR [1, 10]: 1.306
- CR [1, 11]: 0.359
- CR, OR [1, 11]: 0.945
- ORR [1, 11]: 0.513
- ORR, OR [1, 11]: 1.509
- CR [1, 12]: 0.000
- CR, OR [1, 12]: 0.334
- ORR [1, 12]: 0.500
- ORR, OR [1, 12]: 1.306
- CR [1, 13]: 0.200
- CR, OR [1, 13]: 0.418
- ORR [1, 13]: 0.200
- ORR, OR [1, 13]: 0.316
- CR [1, 14]: 0.200
- CR, OR [1, 14]: 0.408
- ORR [1, 14]: 0.200
- ORR, OR [1, 14]: 0.306
- CR [1, 15]: 0.000
- CR, OR [1, 15]: 0.334
- ORR [1, 15]: 0.000
- ORR, OR [1, 15]: 0.254
- CR [1, 16]: 0.250
- CR, OR [1, 16]: 0.563
- ORR [1, 16]: 0.500
- ORR, OR [1, 16]: 1.310
- CR [1, 17]: 0.000
- CR, OR [1, 17]: 0.182
- ORR [1, 17]: 0.000
- ORR, OR [1, 17]: 0.138
- CR [1, 18]: 0.286
- CR, OR [1, 18]: 0.662
- ORR [1, 18]: 0.357
- ORR, OR [1, 18]: 0.703
- CR [1, 19]: 0.200
- CR, OR [1, 19]: 0.418
- ORR [1, 19]: 0.400
- ORR, OR [1, 19]: 0.864
- CR [1, 20]: 0.250
- CR, OR [1, 20]: 0.548
- ORR [1, 20]: 0.417
- ORR, OR [1, 20]: 0.924
- CR [1, 21]: 0.063
- CR, OR [1, 21]: 0.099
- ORR [1, 21]: 0.188
- ORR, OR [1, 21]: 0.270
- ORR ([1]; rrAML, co-occurring NRAS mutation (text)): 19%
- CR [1, 22]: 0.333
- CR, OR [1, 22]: 0.850
- ORR [1, 22]: 0.500
- ORR, OR [1, 22]: 1.314
- CR [1, 23]: 0.000
- CR, OR [1, 23]: 0.148
- ORR [1, 23]: 0.000
- ORR, OR [1, 23]: 0.112
- CR [1, 24]: 0.217
- CR, OR [1, 24]: 0.429
- ORR [1, 24]: 0.261
- ORR, OR [1, 24]: 0.411
- ORR ([1]; rrAML, co-occurring RUNX1 mutation (text)): 26%
- CR [1, 25]: 0.000
- CR, OR [1, 25]: 0.237
- ORR [1, 25]: 0.000
- ORR, OR [1, 25]: 0.180
- CR [1, 26]: 0.000
- CR, OR [1, 26]: 0.237
- ORR [1, 26]: 0.000
- ORR, OR [1, 26]: 0.180
- CR [1, 27]: 0.293
- CR, OR [1, 27]: 0.637
- ORR [1, 27]: 0.341
- ORR, OR [1, 27]: 0.598
- ORR ([1]; rrAML, co-occurring SRSF2 mutation (text)): 34%
- CR [1, 28]: 0.455
- CR, OR [1, 28]: 1.462
- ORR [1, 28]: 0.455
- ORR, OR [1, 28]: 1.091
- CR [1, 29]: 0.333
- CR, OR [1, 29]: 0.853
- ORR [1, 29]: 0.333
- ORR, OR [1, 29]: 0.646
- CR [1, 30]: 0.000
- CR, OR [1, 30]: 0.334
- ORR [1, 30]: 0.000
- ORR, OR [1, 30]: 0.254
- CR [1, 31]: 0.500
- CR, OR [1, 31]: 1.721
- ORR [1, 31]: 1.000
- ORR, OR [1, 31]: 6.678
- CR [1, 32]: 0.333
- CR, OR [1, 32]: 0.853
- ORR [1, 32]: 0.333
- ORR, OR [1, 32]: 0.646
- safety profile [2]: consistent with that of lower doses
- number of patients ([3]; response status +, NRAS mutation +): 2
- number of patients ([3]; response status +, NRAS mutation −): 55
- number of patients ([3]; response status − (SD, PD), NRAS mutation +): 21
- number of patients ([3]; response status − (SD, PD), NRAS mutation −): 40
